How the values were obtained:
[1] = target: T1, ALK tyrosine kinase receptor (Homo sapiens, UniProt Q9UM73); test: Inhibition of human ALK (unknown origin) using poly[Glu:Tyr] as substrate by nanoliter kinase assay
Target sequence in this assay (Q9UM73 whole entry): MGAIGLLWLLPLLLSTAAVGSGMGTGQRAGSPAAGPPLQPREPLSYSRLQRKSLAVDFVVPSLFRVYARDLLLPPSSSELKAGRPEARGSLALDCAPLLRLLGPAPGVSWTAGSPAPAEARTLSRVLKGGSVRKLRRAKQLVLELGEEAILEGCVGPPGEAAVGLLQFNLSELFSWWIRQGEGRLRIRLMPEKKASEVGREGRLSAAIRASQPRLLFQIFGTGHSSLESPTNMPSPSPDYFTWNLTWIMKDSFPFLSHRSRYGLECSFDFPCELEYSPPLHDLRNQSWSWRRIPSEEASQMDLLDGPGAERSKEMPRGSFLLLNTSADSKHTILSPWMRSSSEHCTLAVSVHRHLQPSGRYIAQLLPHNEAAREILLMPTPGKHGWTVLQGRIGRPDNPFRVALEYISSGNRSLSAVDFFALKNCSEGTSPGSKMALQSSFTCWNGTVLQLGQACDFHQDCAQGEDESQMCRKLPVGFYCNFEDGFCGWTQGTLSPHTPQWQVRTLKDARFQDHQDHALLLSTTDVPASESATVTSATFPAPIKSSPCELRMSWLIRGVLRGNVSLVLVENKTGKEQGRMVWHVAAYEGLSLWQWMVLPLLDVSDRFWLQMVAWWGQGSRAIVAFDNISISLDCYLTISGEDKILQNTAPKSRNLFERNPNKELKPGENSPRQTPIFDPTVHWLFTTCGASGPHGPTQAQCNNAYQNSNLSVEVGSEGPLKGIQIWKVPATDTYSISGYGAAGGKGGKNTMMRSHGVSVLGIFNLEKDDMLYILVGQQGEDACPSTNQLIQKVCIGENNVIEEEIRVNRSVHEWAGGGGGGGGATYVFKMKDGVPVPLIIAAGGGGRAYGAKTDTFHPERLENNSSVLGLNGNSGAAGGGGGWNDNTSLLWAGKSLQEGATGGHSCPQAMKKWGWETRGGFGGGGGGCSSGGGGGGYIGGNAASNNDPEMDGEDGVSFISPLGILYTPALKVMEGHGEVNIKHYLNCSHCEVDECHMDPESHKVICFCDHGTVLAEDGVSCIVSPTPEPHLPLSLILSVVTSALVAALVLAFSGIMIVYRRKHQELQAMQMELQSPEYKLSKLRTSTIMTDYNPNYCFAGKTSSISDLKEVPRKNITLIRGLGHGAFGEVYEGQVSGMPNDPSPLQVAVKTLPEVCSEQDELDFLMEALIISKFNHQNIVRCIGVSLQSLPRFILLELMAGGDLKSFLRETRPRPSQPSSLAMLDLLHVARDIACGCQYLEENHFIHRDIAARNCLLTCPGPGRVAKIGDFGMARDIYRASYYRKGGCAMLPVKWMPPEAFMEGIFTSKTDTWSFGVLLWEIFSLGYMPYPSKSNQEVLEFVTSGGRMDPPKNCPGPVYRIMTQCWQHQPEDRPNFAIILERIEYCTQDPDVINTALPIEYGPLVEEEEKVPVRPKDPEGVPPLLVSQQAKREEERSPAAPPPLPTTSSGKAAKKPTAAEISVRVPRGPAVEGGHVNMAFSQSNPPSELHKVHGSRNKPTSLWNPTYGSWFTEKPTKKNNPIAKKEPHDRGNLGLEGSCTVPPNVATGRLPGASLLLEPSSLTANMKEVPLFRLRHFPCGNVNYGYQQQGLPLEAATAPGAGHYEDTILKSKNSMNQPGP

[2] = Cmax in BALB/c mouse at 20 mg/kg, po; format: ADME, organism-based; design: dose 20 mg/kg, route oral; conditions: in vivo
[3] = system: NCI-H1993; test: cells; conditions: Homo sapiens, NCI-H1993, 48 h
Description: Antiproliferative activity against human NCI-H1993 cells after 48 hrs by MTT assay

[4] = animal or person; conditions: Homo sapiens, GTL 16, po, 336 h, read-out: TGI
Description: Antitumor activity against human GTL16 cells xenografted in nu/nu mouse assessed as tumor growth inhibition at 40 mg/kg, po qd for 14 days

[5] = Cmax in BALB/c mouse at 5 mg/kg, iv; format: ADME, organism-based; design: dose 5 mg/kg, route intravenous; conditions: in vivo
[6] = animal or person; conditions: Homo sapiens, GTL 16, po, 336 h, read-out: TGI; remark: listed apart in the source
Description: Antitumor activity against human GTL16 cells xenografted in nu/nu mouse assessed as tumor growth inhibition at 20 mg/kg, po qd for 14 days

[7] = cells; conditions: Homo sapiens, NCI-H441, 48 h
Description: Antiproliferative activity against human H441 cells after 48 hrs by MTT assay

[8] = cells; conditions: Homo sapiens, U-87 MG, 48 h
Description: Antiproliferative activity against human U87MG cells after 48 hrs by MTT assay

[9] = AUC (0 to infinity) in BALB/c mouse at 20 mg/kg, po; format: ADME, organism-based; design: time infinity, dose 20 mg/kg, route oral; conditions: plasma
[10] = system: Mus musculus; test: Bioavailability in BALB/c mouse at 5 mg/kg, iv; format: ADME, organism-based; conditions: in vivo
[11] = target: T1, ALK tyrosine kinase receptor; format: cell-based
Target sequence in this assay (Q9UM73 19-1620 limits assumed): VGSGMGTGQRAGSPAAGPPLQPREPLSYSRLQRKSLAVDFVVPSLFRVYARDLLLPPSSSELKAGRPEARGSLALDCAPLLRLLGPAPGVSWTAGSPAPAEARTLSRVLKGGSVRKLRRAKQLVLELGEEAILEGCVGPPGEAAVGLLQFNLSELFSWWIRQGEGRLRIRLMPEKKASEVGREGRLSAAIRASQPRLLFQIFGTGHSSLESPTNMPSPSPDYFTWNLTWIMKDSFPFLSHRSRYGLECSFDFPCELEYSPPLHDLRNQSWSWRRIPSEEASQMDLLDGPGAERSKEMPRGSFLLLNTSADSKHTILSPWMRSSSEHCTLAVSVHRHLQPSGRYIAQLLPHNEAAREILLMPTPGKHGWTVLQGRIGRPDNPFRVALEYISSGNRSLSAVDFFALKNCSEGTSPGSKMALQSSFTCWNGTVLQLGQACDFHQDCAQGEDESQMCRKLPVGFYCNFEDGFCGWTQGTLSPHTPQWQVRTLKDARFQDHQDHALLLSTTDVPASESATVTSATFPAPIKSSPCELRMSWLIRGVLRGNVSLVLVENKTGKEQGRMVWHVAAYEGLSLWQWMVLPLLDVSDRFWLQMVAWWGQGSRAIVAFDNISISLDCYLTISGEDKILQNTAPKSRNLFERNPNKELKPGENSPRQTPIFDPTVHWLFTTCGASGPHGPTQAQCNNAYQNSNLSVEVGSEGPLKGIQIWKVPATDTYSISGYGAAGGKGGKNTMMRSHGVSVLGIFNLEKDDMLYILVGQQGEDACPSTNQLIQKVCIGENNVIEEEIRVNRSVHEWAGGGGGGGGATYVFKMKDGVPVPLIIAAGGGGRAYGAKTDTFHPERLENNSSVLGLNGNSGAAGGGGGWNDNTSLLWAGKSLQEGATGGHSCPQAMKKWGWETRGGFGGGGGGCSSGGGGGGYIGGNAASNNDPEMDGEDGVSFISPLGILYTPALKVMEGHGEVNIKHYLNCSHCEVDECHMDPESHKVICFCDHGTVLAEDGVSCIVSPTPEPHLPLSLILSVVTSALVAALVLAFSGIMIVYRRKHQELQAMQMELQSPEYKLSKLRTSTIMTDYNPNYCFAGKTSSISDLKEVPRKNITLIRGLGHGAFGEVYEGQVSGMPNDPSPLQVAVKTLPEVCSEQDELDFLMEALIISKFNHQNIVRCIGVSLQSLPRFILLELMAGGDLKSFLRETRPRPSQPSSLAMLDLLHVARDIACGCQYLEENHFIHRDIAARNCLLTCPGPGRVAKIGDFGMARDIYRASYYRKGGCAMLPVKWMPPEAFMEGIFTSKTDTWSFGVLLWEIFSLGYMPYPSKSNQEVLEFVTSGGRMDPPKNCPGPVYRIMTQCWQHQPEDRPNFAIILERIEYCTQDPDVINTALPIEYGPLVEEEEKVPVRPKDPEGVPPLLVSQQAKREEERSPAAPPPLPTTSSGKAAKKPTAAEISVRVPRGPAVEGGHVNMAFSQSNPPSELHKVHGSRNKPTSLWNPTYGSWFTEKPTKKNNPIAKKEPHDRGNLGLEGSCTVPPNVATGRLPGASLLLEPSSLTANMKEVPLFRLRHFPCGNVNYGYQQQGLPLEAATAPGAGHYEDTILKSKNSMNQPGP
Description: Inhibition of NPM-fused ALK phosphorylation (unknown origin) expressed in human karpas 299 cells after 90 mins by Sandwich-ELISA

[12] = cells; conditions: Homo sapiens, GTL 16, 48 h
Description: Antiproliferative activity against human GTL16 cells after 48 hrs by MTT assay

[13] = Oral bioavailability in BALB/c mouse at 20 mg/kg; format: ADME, organism-based; conditions: in vivo
[14] = system: Mus musculus; test: Toxicity in human GTL16 cells xenografted nu/nu mouse model assessed as change in body weight at 20 mg/kg, po qd for 14 days; format: organism-based; design: dose 20 mg/kg, route oral; conditions: in vivo, 336 h
[15] = AUC (0 to infinity) in BALB/c mouse at 5 mg/kg, iv; format: ADME, organism-based; design: time infinity, dose 5 mg/kg, route intravenous; conditions: plasma
[16] = target: Hepatocyte growth factor receptor (Homo sapiens, UniProt P08581); test: Inhibition of c-Met phosphorylation in human […] cells after 1 hr by western blotting; format: cell-based
Sequence of Hepatocyte growth factor receptor (P08581 whole entry): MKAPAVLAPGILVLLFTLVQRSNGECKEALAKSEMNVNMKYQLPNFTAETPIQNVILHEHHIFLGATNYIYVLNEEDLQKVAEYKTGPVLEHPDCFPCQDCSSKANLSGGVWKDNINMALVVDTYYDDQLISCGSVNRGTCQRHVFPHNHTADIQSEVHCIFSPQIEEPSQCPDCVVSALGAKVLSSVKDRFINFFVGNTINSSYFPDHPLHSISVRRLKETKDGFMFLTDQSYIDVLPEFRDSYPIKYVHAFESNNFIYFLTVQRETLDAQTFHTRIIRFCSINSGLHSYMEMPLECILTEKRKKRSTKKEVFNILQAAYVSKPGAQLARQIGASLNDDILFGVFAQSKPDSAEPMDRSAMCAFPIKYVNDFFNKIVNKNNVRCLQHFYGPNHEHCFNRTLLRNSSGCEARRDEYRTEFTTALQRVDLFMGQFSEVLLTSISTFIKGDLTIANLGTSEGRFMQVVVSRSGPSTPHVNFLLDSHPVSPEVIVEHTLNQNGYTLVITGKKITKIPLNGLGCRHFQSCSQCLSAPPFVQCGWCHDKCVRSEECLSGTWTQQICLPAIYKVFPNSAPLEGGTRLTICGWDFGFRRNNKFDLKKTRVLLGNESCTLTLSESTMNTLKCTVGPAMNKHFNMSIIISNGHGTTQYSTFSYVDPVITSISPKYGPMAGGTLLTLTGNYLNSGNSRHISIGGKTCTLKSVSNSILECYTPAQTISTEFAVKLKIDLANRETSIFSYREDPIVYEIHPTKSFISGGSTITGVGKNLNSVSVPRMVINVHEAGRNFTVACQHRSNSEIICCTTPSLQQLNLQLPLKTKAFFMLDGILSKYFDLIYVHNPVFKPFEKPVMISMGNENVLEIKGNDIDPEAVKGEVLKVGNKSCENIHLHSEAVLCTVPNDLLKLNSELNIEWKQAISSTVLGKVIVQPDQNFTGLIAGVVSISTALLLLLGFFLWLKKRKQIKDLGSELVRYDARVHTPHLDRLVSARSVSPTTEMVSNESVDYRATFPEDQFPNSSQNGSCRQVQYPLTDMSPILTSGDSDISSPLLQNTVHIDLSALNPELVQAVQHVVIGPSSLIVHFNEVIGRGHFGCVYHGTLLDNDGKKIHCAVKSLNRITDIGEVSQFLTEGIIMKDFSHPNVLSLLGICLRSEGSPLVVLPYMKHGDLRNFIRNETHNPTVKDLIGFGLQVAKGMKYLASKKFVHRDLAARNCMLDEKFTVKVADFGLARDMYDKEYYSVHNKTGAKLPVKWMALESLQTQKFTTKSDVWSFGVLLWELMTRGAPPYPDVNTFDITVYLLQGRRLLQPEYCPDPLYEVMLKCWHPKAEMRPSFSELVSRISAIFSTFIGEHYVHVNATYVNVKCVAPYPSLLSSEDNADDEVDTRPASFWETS

SMILES	IC50 [1] [nM]	Cmax [2] [nM]	IC50 [3] [nM]	inhibition in vivo at 40 mg/kg [4] [%]	Cmax [5] [nM]	inhibition in vivo at 20 mg/kg [6] [%]	IC50 [7] [nM]	IC50 [8] [µM]	AUC(0-inf) [9] [ng·h/mL]	F [10] [%]	IC50 [11] [nM]	IC50 [12] [nM]	bioavailability [13] [%]	Activity [14]	AUC(0-inf) [15] [ng·h/mL]	IC50 [16] [µM]
C[C@@H](Oc1cc(-c2ccc3c(c2)NC(=O)C32CCN(C)CC2)cnc1N)c1c(Cl)ccc(F)c1Cl	< 0.5	1450	1580	87	1360	52	2820	> 10	2350	100	39	20	48	Non-toxic	1230	
CN1CCC2(CC1)C(=O)Nc1ccc(-c3cnc(N)c(OCc4c(Cl)ccc(F)c4Cl)c3)cc12																> 10
